Experimental findings from patent US8163768B2, “1,4-dihydropyridine-fused heterocycles, process for preparing the same, use and compositions containing them” (Aventis Pharma S.A.., priority 2005, dated 2012) are described below.

The term IC50 denotes the concentration that inhibits the measured activity by half.

One assay has as its target T1, Aurora2 (Aurora-A) (Homo sapiens, UniProt O14965).
T1 construct: Aurora-A: the full length recombinant protein including an N-terminal poly-histidine tail has been expressed in E. coli; poly-histidine (N); made in house; host or cells: E. coli
T1 sequence (O14965 1-403): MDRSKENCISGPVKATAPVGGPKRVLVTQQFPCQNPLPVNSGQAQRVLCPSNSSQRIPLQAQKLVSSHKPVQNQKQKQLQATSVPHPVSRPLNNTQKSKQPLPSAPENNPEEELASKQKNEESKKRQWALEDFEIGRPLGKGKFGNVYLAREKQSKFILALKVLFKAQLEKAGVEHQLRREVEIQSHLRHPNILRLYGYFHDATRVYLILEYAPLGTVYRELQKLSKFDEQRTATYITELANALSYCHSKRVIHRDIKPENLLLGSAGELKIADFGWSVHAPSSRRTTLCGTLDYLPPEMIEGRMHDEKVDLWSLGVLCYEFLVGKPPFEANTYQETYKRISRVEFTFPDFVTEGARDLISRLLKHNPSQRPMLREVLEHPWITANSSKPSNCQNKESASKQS
Kind of assay: Aurora 2 (Aurora A) kinase radioactivity scintillation assay using nickel chelate Flash plates. The assay is classed as biochemical. As to conditions: 10 nM Aurora-A, 500 nM NuMA substrate, 1 μM ATP with [33P] ATP, 10 mM MgCl2, 30 minutes, 37° C. In outline: (§1)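 10 nM Aurora-B or Aurora-A with 500 nM NuMA-His substrate, 1 μM ATP plus [³³P]ATP, in 50 mM NaCl, 1 mM DTT and 5 mM (B) or 10 mM (A) MgCl2, 30 min at 37° C on nickel-chelate plates. Incorporated ³³P counted after washing, background-subtracted; IC50 fitted from % inhibition versus concentration.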

Another assay addresses T2, Aurora1 (Aurora-B) (Homo sapiens, UniProt Q96GD4).
T2 construct: Aurora-B: the full length protein (His tagged in N-terminal) has been co expressed in SF9 cells; poly-histidine (N); made in house; host or cells: SF9 cells
Description: Aurora 1 (Aurora B) kinase radioactivity scintillation assay using nickel chelate Flash plates. The format is biochemical. The following applies: 10 nM Aurora-B (co expressed with C3 fragment of INCEP), 500 nM NuMA substrate, 1 μM ATP with [33P] ATP, 5 mM MgCl2, 30 minutes, 37° C. In outline: as §1

Counter-ions that a name gives are not always drawn.

T2 sequence (Q96GD4 whole entry, species assumed): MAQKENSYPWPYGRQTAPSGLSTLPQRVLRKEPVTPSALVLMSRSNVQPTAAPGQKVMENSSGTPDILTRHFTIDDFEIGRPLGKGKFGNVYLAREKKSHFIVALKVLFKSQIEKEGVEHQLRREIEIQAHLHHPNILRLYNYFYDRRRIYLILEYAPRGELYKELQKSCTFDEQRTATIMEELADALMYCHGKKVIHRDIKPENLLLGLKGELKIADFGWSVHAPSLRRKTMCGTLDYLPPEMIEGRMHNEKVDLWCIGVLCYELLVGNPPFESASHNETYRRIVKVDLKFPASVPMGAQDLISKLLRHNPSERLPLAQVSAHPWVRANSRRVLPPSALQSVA
T2 sequence (Q9NQS7 821-918 partner limits assumed, species assumed): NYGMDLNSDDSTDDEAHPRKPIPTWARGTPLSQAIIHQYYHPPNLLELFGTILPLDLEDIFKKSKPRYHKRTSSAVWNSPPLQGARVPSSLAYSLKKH

Regarding `CC1(C)CC(=O)C2=C(C1)Nc1n[nH]cc1C2c1ccc(Sc2nc3cc(C(F)(F)F)ccc3[nH]2)o1` (centres unmarked) [Example 96, 4-[5-(5-Trifluoromethyl-1H-benzoimidazol-2-ylsulfanyl)-furan-2-yl]-7,7-dimethyl-2,4,6,7,8,9-hexahydro-pyrazolo[3,4-b]quinolin-5-one], the IC50 at Aurora2 (Aurora-A) is 58 nM; on Aurora1 (Aurora-B) it was 23 nM.

Take `O=C1CNCC2=C1C(c1ccc(Sc3nc4cc(C(F)(F)F)ccc4[nH]3)o1)c1c[nH]nc1N2` (centres unmarked) [Example 97]: the values for the IC50 on Aurora2 (Aurora-A) and on Aurora1 (Aurora-B) were 292 nM and 47 nM, respectively.

With `Cc1nc(Sc2ccc(C3C4=C(CCCC4=O)Nc4n[nH]cc43)o2)[nH]c1C` (centres unmarked) [Example 98, 4-[5-(4,5-Dimethyl-1H-imidazol-2-ylsulfanyl)-furan-2-yl]-2,4,6,7,8,9-hexahydro-pyrazolo[3,4-b]quinolin-5-one], the IC50 on Aurora2 (Aurora-A) was found to be 338 nM; at Aurora1 (Aurora-B), 231 nM.

In the case of `Cc1nc(Sc2ccc(C3C4=C(CC(C)(C)CC4=O)Nc4n[nH]cc43)o2)[nH]c1C` (centres unmarked) [Example 99, 4-[5-(4,5-Dimethyl-1H-imidazol-2-ylsulfanyl)-furan-2-yl]-7,7-dimethyl-2,4,6,7,8,9-hexahydro-pyrazolo[3,4-b]quinolin-5-one], the IC50 on Aurora2 (Aurora-A) is 135 nM; on Aurora1 (Aurora-B) it was 124 nM.

As to `Cc1nc(Sc2ccc(C3C4=C(CNCC4=O)Nc4n[nH]cc43)o2)[nH]c1C` (centres unmarked) [Example 100, 4-[5-(4,5-Dimethyl-1H-imidazol-2-ylsulfanyl)-furan-2-yl]-2,4,6,7,8,9-hexahydro-pyrazolo[3,4-b]-1,7-naphthyridin-5-one; compound with trifluoro-acetic acid], the values for the IC50 at Aurora2 (Aurora-A) and at Aurora1 (Aurora-B) were 5440 nM and 5430 nM, respectively.

Turning to `Cc1ccc2[nH]c(Sc3ccc(C4C5=C(CCCC5=O)Nc5[nH]ncc54)s3)nc2c1` (centres unmarked) [Example 101, 4-[5-(5-Methyl-1H-benzimidazol-2-ylsulfanyl)-thiophen-2-yl]-1,4,6,7,8,9-hexahydro-pyrazolo[3,4-b]quinolin-5-one], the IC50 came out at 1710 nM at Aurora2 (Aurora-A) and 60 nM at Aurora1 (Aurora-B).

For `Cc1ccc2[nH]c(Sc3ccc(C4C5=C(CC(C)(C)CC5=O)Nc5n[nH]cc54)s3)nc2c1` (centres unmarked) [Example 102, 7,7-Dimethyl-4-[5-(5-methyl-1H-benzoimidazol-2-ylsulfanyl)-thiophen-2-yl]-2,4,6,7,8,9-hexahydro-pyrazolo[3,4-b]quinolin-5-one], the results for the IC50 at Aurora2 (Aurora-A) and on Aurora1 (Aurora-B) were 596 nM and 45 nM, respectively.

Consider `Cc1ccc2[nH]c(Sc3ccc(C4C5=C(CNCC5=O)Nc5n[nH]cc54)s3)nc2c1` (centres unmarked) [Example 103, 4-[5-(5-Methyl-1H-benzoimidazol-2-ylsulfanyl)-thiophen-2-yl]-2,4,6,7,8,9-hexahydro-pyrazolo[3,4-b]-1,7-naphthyridin-5-one; compound with trifluoro-acetic acid], for which the values for the 50% inhibitory concentration (IC50) on Aurora2 (Aurora-A) and at Aurora1 (Aurora-B) were 4720 nM and 299 nM, respectively.

For the compound `CCOC(=O)c1[nH]cc2c1NC1=C(C(=O)CCCC1)C2c1ccc(Sc2nc3ccccc3[nH]2)o1` (centres unmarked) [Example 107, 10-[5-(1H-Benzoimidazol-2-ylsulfanyl)-furan-2-yl]-9-oxo-2,4,5,6,7,8,9,10-octahydro-2,4-diaza-cyclohepta[f]indene-3-carboxylic acid ethyl ester, compound with trifluoroacetic acid], the half-maximal inhibitory concentration (IC50) is 2940 nM on Aurora2 (Aurora-A) and 2580 nM on Aurora1 (Aurora-B).

As for `CCOC(=O)c1[nH]cc2c1NC1=C(C(=O)CCC1)C2c1ccc(Sc2nc3cc(C)ccc3[nH]2)o1` (centres unmarked) [Example 108, 9-[5-(5-Methyl-1H-benzimidazol-2-ylsulfanyl)-furan-2-yl]-8-oxo-4,5,6,7,8,9-hexahydro-2H-pyrrolo[3,4-b]quinoline-3-carboxylic acid ethyl ester], the IC50 turned out to be 41 nM on Aurora2 (Aurora-A) and 8 nM at Aurora1 (Aurora-B).

With `CCOC(=O)c1[nH]cc2c1NC1=C(C(=O)CC(C)(C)C1)C2c1ccc(Sc2nc3cc(C)ccc3[nH]2)o1` (centres unmarked) [Example 109, 6,6-Dimethyl-9-[5-(5-methyl-1H-benzimidazol-2-ylsulfanyl)-furan-2-yl]-8-oxo-4,5,6,7,8,9-hexahydro-2H-pyrrolo[3,4-b]quinoline-3-carboxylic acid ethyl ester], the IC50 stood at 63 nM on Aurora2 (Aurora-A) and 17 nM at Aurora1 (Aurora-B).

For `CCOC(=O)c1[nH]cc2c1NC1=C(C(=O)CNC1)C2c1ccc(Sc2nc3cccnc3[nH]2)o1` (centres unmarked) [Example 113, 9-[5-(3H-Imidazo[4,5-b]pyridin-2-ylsulfanyl)-furan-2-yl]-8-oxo-4,5,6,7,8,9-hexahydro-2H-pyrrolo[3,4-b][1,7]naphthyridine-3-carboxylic acid ethyl ester], the 50% inhibitory concentration (IC50) on Aurora2 (Aurora-A) was 112 nM; on Aurora1 (Aurora-B), 23 nM.

Consider `CCOC(=O)c1[nH]cc2c1NC1=C(C(=O)CCC1)C2c1ccc(Sc2nc3ccncc3[nH]2)o1` (centres unmarked) [Example 117, 9-[5-(3H-Imidazo[4,5-c]pyridin-2-ylsulfanyl)-furan-2-yl]-8-oxo-4,5,6,7,8,9-hexahydro-2H-pyrrolo[3,4-b]quinoline-3-carboxylic acid ethyl ester], for which the IC50 on Aurora2 (Aurora-A) was 3090 nM; on Aurora1 (Aurora-B), 194 nM.

With `CCOC(=O)c1[nH]cc2c1NC1=C(C(=O)CNC1)C2c1ccc(Sc2nc3cc(O)ccc3[nH]2)o1` (centres unmarked) [Example 123, 9-[5-(5-Hydroxy-1H-benzimidazol-2-ylsulfanyl)-furan-2-yl]-8-oxo-4,5,6,7,8,9-hexahydro-2H-pyrrolo[3,4-b]-1,7-naphthyridine-3-carboxylic acid ethyl ester hydrochloride], the IC50 was 813 nM at Aurora2 (Aurora-A) and 72 nM at Aurora1 (Aurora-B).

Turning to `CC1(C)CC(=O)C2=C(C1)Nc1c(c[nH]c1C(=O)O)C2c1ccc(Sc2nc3ccccc3[nH]2)o1` (centres unmarked) [Example 124, 9-[5-(1H-Benzimidazol-2-ylsulfanyl)-furan-2-yl]-6,6-dimethyl-8-oxo-4,5,6,7,8,9-hexahydro-2H-pyrrolo[3,4-b]quinoline-3-carboxylic acid], the IC50 at Aurora2 (Aurora-A) is 20 nM; at Aurora1 (Aurora-B), 15 nM.

For the compound `CC1(C)CC(=O)C2=C(C1)Nc1c(c[nH]c1C(N)=O)C2c1ccc(Sc2nc3ccccc3[nH]2)o1` (centres unmarked) [Example 125, 9-[5-(1H-Benzimidazol-2-ylsulfanyl)-furan-2-yl]-6,6-dimethyl-8-oxo-4,5,6,7,8,9-hexahydro-2H-pyrrolo[3,4-b]quinoline-3-carboxamide], the IC50 on Aurora2 (Aurora-A) was 23 nM; on Aurora1 (Aurora-B), 11 nM.

As for `CCOC(=O)c1[nH]cc2c1NC1=C(C(=O)CCC1)C2c1ccc(Sc2nc3cc(OC(F)F)ccc3[nH]2)o1` (centres unmarked) [Example 126, 9-[5-(5-Difluoromethoxy-1H-benzimidazol-2-ylsulfanyl)-furan-2-yl]-8-oxo-4,5,6,7,8,9-hexahydro-2H-pyrrolo[3,4-b]quinoline-3-carboxylic acid ethyl ester], the IC50 at Aurora2 (Aurora-A) is 41 nM; on Aurora1 (Aurora-B), 13 nM.

Take `CCOC(=O)c1[nH]cc2c1NC1=C(C(=O)CN(C(=O)OC(C)(C)C)C1)C2c1ccc(Sc2nc3cc(OC(F)F)ccc3[nH]2)o1` (centres unmarked) [Example 127]: the values for the IC50 on Aurora2 (Aurora-A) and at Aurora1 (Aurora-B) were 566 nM and 93 nM, respectively.

For `CCOC(=O)c1[nH]cc2c1NC1=C(C(=O)CNC1)C2c1ccc(Sc2nc3cc(OC(F)F)ccc3[nH]2)o1` (centres unmarked) [Example 128, 9-[5-(5-Difluoromethoxy-1H-benzimidazol-2-ylsulfanyl)-furan-2-yl]-8-oxo-4,5,6,7,8,9-hexahydro-2H-pyrrolo[3,4-b]-1,7-naphthyridine-3-carboxylic acid ethyl ester hydrochloride], the half-maximal inhibitory concentration (IC50) on Aurora2 (Aurora-A) is 114 nM; on Aurora1 (Aurora-B), 17 nM.

With `CCOC(=O)c1[nH]cc2c1NC1=C(C(=O)CN(C(=O)OC(C)(C)C)C1)C2c1ccc(Sc2nc3cc(Cl)ccc3[nH]2)o1` (centres unmarked) [Example 130], the values for the IC50 at Aurora2 (Aurora-A) and on Aurora1 (Aurora-B) were 434 nM and 37 nM, respectively.

On to `CCOC(=O)c1[nH]cc2c1NC1=C(C(=O)CNC1)C2c1ccc(Sc2nc3cc(Cl)ccc3[nH]2)o1` (centres unmarked) [Example 131, 9-[5-(5-Chloro-1H-benzimidazol-2-ylsulfanyl)-furan-2-yl]-8-oxo-4,5,6,7,8,9-hexahydro-2H-pyrrolo[3,4-b]-1,7-naphthyridine-3-carboxylic acid ethyl ester hydrochloride], for which the results for the half-inhibitory concentration (IC50) on Aurora2 (Aurora-A) and at Aurora1 (Aurora-B) were 82 nM and 10 nM, respectively.

In the case of `CCOC(=O)c1[nH]cc2c1NC1=C(C(=O)CCC1)C2c1ccc(Sc2nc3cc(C(F)(F)F)ccc3[nH]2)o1` (centres unmarked) [Example 132, 8-Oxo-9-[5-(5-trifluoromethyl-1H-benzimidazol-2-ylsulfanyl)-furan-2-yl]-4,5,6,7,8,9-hexahydro-2H-pyrrolo[3,4-b]quinoline-3-carboxylic acid ethyl ester], the IC50 on Aurora2 (Aurora-A) worked out at 114 nM; at Aurora1 (Aurora-B), 14 nM.
